{"source": "patent US9944700B2", "about": "“Notch2 binding molecules for treating respiratory diseases” (NOVARTIS AG, priority 2013, dated 2018)", "key": {"[1]": {"test_system": "bronchospheres (human bronchial epithelial cells)", "assay": "Bronchosphere assay of secreted recombinant human proteins, qPCR of cell type markers and immunostaining", "format": "cell-based", "description": "(§1) Human bronchial epithelial (HBE) cells and culture media were obtained from Lonza. Air-liquid interface cultures using passage 2 (P2) cells were performed as previously described (Danahay, H. et al., American journal of physiology. Lung cellular and molecular physiology 282, L226-236 (2002)). For three-dimensional culturing of HBE cells, P1 cells were trypsinized and resuspended (30,000 cells/ml) in HBE differentiation media containing 5% growth factor-reduced Matrigel (BD Biosciences). 20 μl of suspension was plated in each well of a 384-well plate (Greiner) pre-coated with 10 μl of a 25% solution of Matrigel (BD Biosciences) in HBE differentiation media. Wells were fed or treated at day 2 and day 8 of culture by adding 30 μl of differentiation media containing the appropriate treatment. Three-dimensional cultures were analyzed at the time points indicated.\nImmunofluorescence of HBEC bronchospheres was performed as described previously for MCF10A cysts (Debnath, J. et al., Methods 30, 256-268 (2003) with the following modifications. After incubation with fluorescence-conjugated secondary antibodies, DNA was stained with a 1:1 mix of PBS and ProLong gold antifade containing DAPI. Confocal microscopy was performed at room temperature on a microscope (Zeiss LSM510 Meta) using an EC Plan-Neofluar 10×/0.30 dry objective (Zeiss), an EC Plan-Neofluor 20×/0.5 dry objective (Zeiss), a C-Apochromat 40×/1.2 W corr (Zeiss), or a C-Apochromat 63×/1.2 W Corr objective (Zeiss). Images were collected with Zen confocal software (Zeiss). Scale bars were added, and images were processed using Zen (Zeiss) and Photoshop (Adobe). Air-liquid interface (ALI) cultures were processed for immunofluorescence analysis after 14 days of culture at ALI by rinsing the apical surface of each filter with PBS, and then fixing in 4% paraformaldehyde for 4 hours. Filters were washed with IF buffer (130 mM NaCl, 7 mM Na2HPO4, 3.5 mM NaH2PO4, 7.7 mM NaN3, 0.1% bovine serum albumin, 0.2% Triton X-100, 0.05% Tween-20), blocked with IF wash containing 10% goat serum, and stained with primary antibody in IF wash containing 10% goat serum overnight at 4° C. Secondary antibodies were used at a 1:200 dilution in IF buffer containing 10% goat serum. To quantify the total staining area of ALI cultures, 10×13 images were collected with a plan Neofluar 10×0.3 NA Ph1 objective (EC; Carl Zeiss, Inc.) on a microscope (Axiovert 200; Carl Zeiss, Inc.) equipped with a motorized stage and a camera (Orca-ER-1394; Hamamatsu Photonics) controlled by Axiovision software (Carl Zeiss, Inc.) and used to generate a single composite image using the MOSAIX function in Zeiss Axiovision. Quantification of the total staining area was performed with ImageJ. Two to three regions of each ALI culture were punched out with a 4 mm biopsy punch (Miltex, Inc.) and mounted in ProLong gold antifade containing DAPI for imaging by confocal microscopy on a microscope (Axiovert 200; Carl Zeiss, Inc.) equipped with a motorized stage, a Yokogawa CSU-X1 spinning disc head, and an EMCCD camera (Evolve 512, Photometrics), with a Plan-Apochromat 100×/1.4 Oil DIC objective (Zeiss). Cells positive for MUC5AC, MUC5B, or cilia (acetylated α-Tubulin) staining were counted manually. For time-lapse video microscopy, HBECs were imaged at the indicated times during bronchosphere development at 37° C. with a plan Neofluar 10×0.3 NA Ph1 objective (EC; Carl Zeiss, Inc.). Images were taken every 5 min for the indicated time period. Annotations (time stamp and scale bar) were added and videos were assembled using Axiovision software.\nRNA was isolated from 3D bronchosphere cultures with Trizol (Invitrogen), using manufacturer's specifications. To isolate RNA from mouse tissue, approximately 20 mg of tissue was placed in a 1.5 ml eppendorf tube with 1 ml of Buffer RLT Plus (Qiagen). A 5 mm stainless steel bead (Qiagen) was added to the tube, and the tissue was sheared using a Tissue Lyser II (Qiagen)."}, "airway basal cells": {"test_system": "airway basal cells", "assay": "Air-liquid interface (ALI) cultures of airway basal cells treated with IL-17A", "format": "cell-based, human", "details": "IL-17A from day 7 (day 0 at ALI), analysed day 21; FIGS. 3d, 3e", "description": "as §1, with “Wells were fed or treated at day 2 and day 8 of culture by adding 30 μl of differentiation media containing the appropriate treatment.” left out\n(§2) Immunofluorescence of HBEC bronchospheres was performed as described previously for MCF10A cysts (Debnath, J. et al., Methods 30, 256-268 (2003) with the following modifications. After incubation with fluorescence-conjugated secondary antibodies, DNA was stained with a 1:1 mix of PBS and ProLong gold antifade containing DAPI. Confocal microscopy was performed at room temperature on a microscope (Zeiss LSM510 Meta) using an EC Plan-Neofluar 10×/0.30 dry objective (Zeiss), an EC Plan-Neofluor 20×/0.5 dry objective (Zeiss), a C-Apochromat 40×/1.2 W corr (Zeiss), or a C-Apochromat 63×/1.2 W Corr objective (Zeiss). […]"}, "[2]": {"test_system": "Human airway basal cells grown in 3D", "assay": "3D bronchosphere cultures treated with Notch receptor-specific blocking antibodies, qPCR of cell type markers", "format": "cell-based", "description": "as §1\nRNA was isolated from 3D bronchosphere cultures with Trizol (Invitrogen), using manufacturer's specifications. To isolate RNA from mouse tissue, approximately 20 mg of tissue was placed in a 1.5 ml eppendorf tube with 1 ml of Buffer RLT Plus (Qiagen). A 5 mm stainless steel bead (Qiagen) was added to the tube, and the tissue was sheared using a Tissue Lyser II (Qiagen). RNA from the sheared tissue was purified using the RNeasy Plus Mini Kit (Qiagen), using manufacturer's specifications. TaqMan Reverse Trascription Reagents (Invitrogen) were used to generate cDNA from 1 μg of total RNA. Quantitative PCR was performed on a ViiA7 Real-Time PCR System (Applied Biosystems), using 40 ng of cDNA per reaction with the following Taqman probes (Applied Biosystems): MUC5AC, Hs01365601_m1; MUC5B, Hs00861588_m1; FOXA3, Hs00270130_m1; FOXJ1, Hs00230964_m1; DNAI2, Hs01001544_m1; TP63, Hs00978340_m1; ITGA6, Hs01041011_m1; GAPDH, Hs99999905_m1; Muc5ac, Mm012718_m1; Foxj1, Mm012367279_m1; Trp63, Mm00495788_m1; Gapdh, Mm99999915_g1. […]"}, "[3]": {"test_system": "Human airway basal cells grown in 3D", "assay": "IL-13-driven goblet cell metaplasia in 3D bronchospheres, qPCR of cell type markers", "format": "cell-based", "description": "as §1\nRNA was isolated from 3D bronchosphere cultures with Trizol (Invitrogen), using manufacturer's specifications. […] Quantitative PCR was performed on a ViiA7 Real-Time PCR System (Applied Biosystems), using 40 ng of cDNA per reaction with the following Taqman probes (Applied Biosystems): MUC5AC, Hs01365601_m1; MUC5B, Hs00861588_m1; FOXA3, Hs00270130_m1; FOXJ1, Hs00230964_m1; DNAI2, Hs01001544_m1; TP63, Hs00978340_m1; ITGA6, Hs01041011_m1; GAPDH, Hs99999905_m1; Muc5ac, Mm012718_m1; Foxj1, Mm012367279_m1; Trp63, Mm00495788_m1; Gapdh, Mm99999915_g1.\nIn order to understand if neutralizing Notch2 could prevent goblet cell metaplasia, a hallmark of several airway diseases including asthma, cystic fibrosis, and COPD, anti-Notch2 antibodies were tested for their effect on IL-13-driven goblet cell metaplasia in 3D bronchospheres. Human airway basal cells were grown in 3D in the presence of vehicle control or IgG, with or without 1 ng/ml IL-13, or increasing concentrations of α-N2 D3 or 59R5 antibodies together with 1 ng/ml of IL-13, and analyzed by qPCR for the expression levels of the indicated goblet cell markers (FIG. 5a), ciliated cell markers (FIG. 5b), and basal cell markers (FIG. 5c)."}, "[4]": {"test_system": "Human bronchial epithelial (HBE) cells", "assay": "IL-13-driven goblet cell metaplasia in ALI cultures", "format": "cell-based", "details": "ALI cultures (results not shown)", "description": "as §1, with “Wells were fed or treated at day 2 and day 8 of culture by adding 30 μl of differentiation media containing the appropriate treatment.” left out\nas §2"}, "[5]": {"test_system": "IL-13 driven goblet cell metaplasia", "assay": "IL-13 mouse model, co-administration of anti-Notch2 antibodies", "format": "in vivo", "description": "RNA was isolated from 3D bronchosphere cultures with Trizol (Invitrogen), using manufacturer's specifications. To isolate RNA from mouse tissue, approximately 20 mg of tissue was placed in a 1.5 ml eppendorf tube with 1 ml of Buffer RLT Plus (Qiagen). A 5 mm stainless steel bead (Qiagen) was added to the tube, and the tissue was sheared using a Tissue Lyser II (Qiagen). RNA from the sheared tissue was purified using the RNeasy Plus Mini Kit (Qiagen), using manufacturer's specifications. TaqMan Reverse Trascription Reagents (Invitrogen) were used to generate cDNA from 1 μg of total RNA. Quantitative PCR was performed on a ViiA7 Real-Time PCR System (Applied Biosystems), using 40 ng of cDNA per reaction with the following Taqman probes (Applied Biosystems): MUC5AC, Hs01365601_m1; MUC5B, Hs00861588_m1; FOXA3, Hs00270130_m1; FOXJ1, Hs00230964_m1; DNAI2, Hs01001544_m1; TP63, Hs00978340_m1; ITGA6, Hs01041011_m1; GAPDH, Hs99999905_m1; Muc5ac, Mm012718_m1; Foxj1, Mm012367279_m1; Trp63, Mm00495788_m1; Gapdh, Mm99999915_g1.\nFemale Balb/c mice (20-25 g) were obtained from Charles River (Morgate, UK). Mice were housed under specific pathogen free conditions and were provided with food and water ad libitum. Experiments were performed in accordance with the UK Animals Scientific Procedures Act 1986.\nMice received 0.5 μg of recombinant mouse IL-13 (Ebiosciences, UK) or phosphate-buffered saline (PBS) intranasally on 3 consecutive (days 1, 2, 3). Mice received either 20 mg/kg neutralizing antibody against Notch2 (α-N2 D3 or α-N2 59R5) or control IgG, or PBS intraperitoneally 2 hours before intranasal challenge with either IL-13 or PBS, on days 1 and 3 only. Mice were euthanized 24 hours after the final IL-13 administration. The left lungs were excised, inflated with 10% neutral buffered formalin (NBF) and preserved in NBF. Lungs were embedded in paraffin wax and lung sections were obtained for each animal. Sections were stained with Periodic Acid-Schiff (PAS) stain for mucus.\nPAS positive staining was quantified in lung sections using Definiens Image Analysis software. Two distinct lung sections were analyzed per mouse and the total area of PAS positive staining within the sections was determined. The PAS positive staining was normalized to the area of tissue analyzed and represented as ‘Relative Area PAS Positive Mucus (%)’.\nData are expressed as mean±SEM. Statistical significance was determined using a parametric one way ANOVA and Dunnetts post-test. GraphPad Prism (version 5.04) was used to generate graphs and perform statistical analysis. ***p<0.001 denotes statistically significant difference from relevant isotype control group."}}}
{"substance": "IL-17A: secreted, recombinant human protein; cytokine secreted by Th17 cells", "values": [{"measurement": "change in expression of at least one cell-type marker, initial screen", "setting": "[1]; 55 proteins tested at 3.3, 10 and 30 ng/mL", "result": "concentration-dependent change"}, {"measurement": "basal cell markers", "setting": "[1]; IL-17A, qPCR, FIG. 3c", "result": "No significant changes"}, {"measurement": "levels of goblet cell markers (MUC5AC, MUC5B and FOXA3)", "setting": "[1]; broader range of IL-17A concentrations, qPCR, FIG. 3a", "result": "increased levels"}, {"measurement": "expression of markers of ciliated cells (FOXJ1 and DNAI2)", "setting": "[1]; broader range of IL-17A concentrations, qPCR, FIG. 3b", "result": "inhibiting"}, {"measurement": "expression of both of the ciliated cell markers", "setting": "[1]; markers FOXJ1, DNAI2", "result": "attenuated"}, {"measurement": "expression of at least two of the goblet cell markers", "setting": "[1]; markers MUC5AC, MUC5B, FOXA3", "result": "enhanced"}, {"measurement": "change in expression of at least one of the cell-type markers, on validation", "setting": "[1]; validation, expanded concentration range", "result": "robust change"}, {"measurement": "goblet cell population (MUC5AC and MUC5B markers)", "setting": "airway basal cells", "result": "profound expansion"}, {"measurement": "number of ciliated cells (α-tubulin marker)", "setting": "airway basal cells", "result": "dramatic reduction"}]}
{"substance": "59R5: anti-Notch2 antagonist IgG1 antibody, heavy chain SEQ ID NO: 5, light chain SEQ ID NO: 6", "values": [{"measurement": "effect on basal cell markers p63 and ITGA6", "setting": "[2]; FIG. 4c", "result": "Neither antibody showed any significant effect"}, {"measurement": "goblet cell formation: expression of goblet cell markers MUC5AC, MUC5B and FOXA3", "setting": "[2]; compared with IgG control or anti-Notch1 / anti-Notch3 antibodies, FIG. 4a", "result": "decreased"}, {"measurement": "ciliated cell formation: expression of ciliated cells markers FOXJ1 and DNAI2", "setting": "[2]; compared with IgG control or anti-Notch1 / anti-Notch3 antibodies, FIG. 4b", "result": "increasing"}, {"measurement": "IL-13-driven goblet cell metaplasia (expression of goblet cell markers MUC5AC, MUC5B and FOX3A)", "setting": "[3]; 1 ng/ml IL-13, increasing antibody concentrations, qPCR, FIG. 5a", "result": "completely inhibited"}, {"measurement": "ciliated cells function (expression of ciliated cell markers FOXJ1 and DNAI2)", "setting": "[3]; 1 ng/ml IL-13, qPCR, FIG. 5b", "result": "partially restored"}, {"measurement": "effect on basal cells markers p63 and ITGA6", "setting": "[3]; 1 ng/ml IL-13, qPCR, FIG. 5c", "result": "No effect"}, {"measurement": "IL-13-driven goblet cell metaplasia", "setting": "[4]", "result": "completely inhibited"}, {"measurement": "effect on basal cell marker Trp63, qPCR of whole lung tissue", "setting": "[5]; 20 mg/kg i.p. days 1 and 3, FIG. 6e", "result": "no effect"}, {"measurement": "ciliated cell marker Foxj1, qPCR of whole lung tissue", "setting": "[5]; 20 mg/kg i.p. days 1 and 3, FIG. 6d", "result": "concomitant increase"}, {"measurement": "Muc5ac expression levels, qPCR of whole lung tissue RNA", "setting": "[5]; 20 mg/kg i.p. days 1 and 3, confirms reduced goblet cell metaplasia, FIG. 6c", "result": "verified this observation"}, {"measurement": "IL-13 driven goblet cell metaplasia (PAS staining of lung sections)", "setting": "[5]; Balb/c mice, 20 mg/kg antibody i.p. 2 hours before intranasal IL-13, days 1 and 3, FIGS. 6a, 6b", "result": "completely blocked"}]}
